This passage reports Activity results from ChEMBL document CHEMBL1121972, “Spasmolytic agents. 2. 1,2,3,4-Tetrahydro-2-naphthylamine derivatives” (1982).

For experiment [1], the system named is Canis familiaris. In words: Antispasmodic activity was measured on colonic contraction in anesthetized dog after iv administration of a dose of 0.1 mg/kg. It counts as functional, Canis lupus familiaris.
The subject of experiment [2] is Canis familiaris. In words: Antispasmodic activity was measured on stomach contraction in anesthetized dog after iv administration of a dose of 0.1 mg/kg. It counts as functional, Canis lupus familiaris.

`CCN(CCCCO)C1CCc2cc(OC)ccc2C1` (stereo not given): the Activity in the experiment with Canis familiaris [1] is on record as 2.6; in the experiment with Canis familiaris [2] it was below 5. Taken in the same sequence, the figures for `CCN(CCCCOCc1ccc(OC)c(OC)c1)C1CCc2cc(OC)ccc2C1` (stereo not given) were -4.3 and below 5. Taken in the same sequence, the figures for `CCN(CCCCOC(=O)c1cc(OC)c(OC)c(OC)c1)C1CCc2cc(OC)ccc2C1.CS(=O)(=O)O` (stereo not given) were 1.1 and below 5.

On to `CCN(CCCCCCO)C1CCc2cc(OC)ccc2C1` (stereo not given), for which the Activity in the experiment on Canis familiaris [1] was 5.2.

In turn, `CCCN(CCCCOC(=O)c1ccc(OC)c(OC)c1)C1CCc2cc(OC)ccc2C1.Cl` (stereo not given) registered an Activity in the experiment with Canis familiaris [2] below 5.

As for `CCOc1ccc2c(c1)CCC(N(CC)CCCCOC(=O)c1ccc(OC)c(OC)c1)C2.Cl` (stereo not given), the results for the Activity in the experiment on Canis familiaris [1] and with Canis familiaris [2] were 7.4 and below 5, respectively. The corresponding values for `COc1ccc2c(c1)CCC(N(C)CCCCOC(=O)c1ccc(OC)c(OC)c1)C2.Cl` (stereo not given) are -4.9 and below 5. In the experiment with Canis familiaris [2], `CCN(CCCCOC(=O)c1ccc(OC)c(OC)c1)C1CCc2cc(OC)c(OC)cc2C1.Cl` (stereo not given) showed an Activity of 11.8.

In the experiment on Canis familiaris [2], `CCN(CCCCOC(=O)c1ccc(OC)c(OC)c1)C1CCc2ccccc2C1.Cl` (stereo not given) gave an Activity below 5. The same measure, in the same setting: the same measure for `CCN(CCCCOC(=O)c1ccc(OC)c(OC)c1)C1CCc2cc(OC)ccc2C1.Cl` (stereo not given): 6.6.

With `CCN(CC(C)(C)COC(=O)c1ccc(OC)c(OC)c1)C1CCc2cc(OC)ccc2C1.Cl` (stereo not given), the Activity is recorded as 15.8 with Canis familiaris [1] and below 5 in the experiment on Canis familiaris [2]. For `CCCOc1ccc(C(=O)OCCCCN(CC)C2CCc3cc(OC)ccc3C2)cc1.Cl` (stereo not given), the Activity in the experiment with Canis familiaris [1] was 10.2; in the experiment with Canis familiaris [2], below 5. Taken in the same sequence, the figures for `CCN(CCOC(=O)c1ccc(OC)c(OC)c1)C1CCc2cc(OC)ccc2C1.Cl` (stereo not given) were 11.4 and below 5. Taken in the same sequence, the figures for `CCN(CCCCOC(=O)c1c(OC)cccc1OC)C1CCc2cc(OC)ccc2C1.Cl` (stereo not given) were -8.7 and below 5.

In the case of `CCN(CCCCOC(=O)c1ccc(OC)c(OC)c1)C1CCc2c(cccc2OC)C1.Cl` (stereo not given), the Activity in the experiment on Canis familiaris [1] was 13.3; in the experiment on Canis familiaris [2], below 5. `CCN(CCCCCCCCCCOC(=O)c1ccc(OC)c(OC)c1)C1CCc2cc(OC)ccc2C1.Cl` (stereo not given): the results for the Activity with Canis familiaris [1] and with Canis familiaris [2] were 13.7 and below 5, respectively.

For the compound `CCN(CCCCOC(=O)c1ccc(OC)cc1)C1CCc2cc(OC)ccc2C1.Cl` (stereo not given), the Activity in the experiment with Canis familiaris [1] is listed as 8.1; with Canis familiaris [2], below 5.

Take `CCN(CCCCOC(=O)c1ccc(OC)c(OC)c1)C1CCc2c(OC)ccc(OC)c2C1.Cl` (stereo not given): the Activity in the experiment on Canis familiaris [1] is 9.2; with Canis familiaris [2] it was below 5. The corresponding values for `CCN(CCOCCOC(=O)c1ccc(OC)c(OC)c1)C1CCc2cc(OC)ccc2C1.Cl` (stereo not given) are 0 and below 5. Taken in the same sequence, the figures for `COc1ccc2c(c1)CCC(N(CCCCOC(=O)c1ccc(OC)c(OC)c1)C(C)C)C2.Cl` (stereo not given) were 19.6 and below 5.

Turning to `CCN(CCCCOC(=O)c1ccc2c(c1)OCO2)C1CCc2cc(OC)ccc2C1.Cl` (stereo not given), the Activity in the experiment with Canis familiaris [1] is given as 1.3; in the experiment with Canis familiaris [2] it was below 5.

In turn, `CCN(CCCCCCOC(=O)c1ccc(OC)c(OC)c1)C1CCc2ccccc2C1.Cl` (stereo not given) had an Activity in the experiment with Canis familiaris [2] of 31.3. The same measure, in the same setting: the result for `CCN(CCCCCCOC(=O)c1ccc(OC)c(OC)c1)C1CCc2cc(OC)ccc2C1.Cl` (stereo not given) reads below 5. For the compound `CCOc1ccc(C(=O)OCCCCN(CC)C2CCc3cc(OC)ccc3C2)cc1.Cl` (stereo not given), the Activity is -2.5 in the experiment on Canis familiaris [1] and below 5 in the experiment with Canis familiaris [2]. The corresponding values for `CCCOc1ccc2c(c1)CCC(N(CC)CCCCOC(=O)c1ccc(OC)c(OC)c1)C2.Cl` (stereo not given) are 1.4 and below 5. Taken in the same sequence, the figures for `CCN(CCCCOC(=O)c1ccccc1)C1CCc2cc(OC)ccc2C1.Cl` (stereo not given) were -2.6 and below 5. On to `CCOc1cc(C(=O)OCCCCN(CC)C2CCc3cc(OC)ccc3C2)cc(OCC)c1OCC.Cl` (stereo not given), for which the Activity in the experiment with Canis familiaris [1] is -6.8; in the experiment on Canis familiaris [2], below 5. On to `CCN(CCCCOC(=O)c1ccc(OC)c(OC)c1)C1CCc2cccc(OC)c2C1.Cl` (stereo not given), for which the Activity in the experiment with Canis familiaris [2] was 21.3.

`CCN(CCCCCCOC(=O)c1ccc(OC)c(OC)c1)C1CCc2cc(OC)c(OC)cc2C1.Cl` (stereo not given) displayed an Activity in the experiment with Canis familiaris [2] of 64.5. Regarding `CCN(CCCCOC(=O)c1ccc(OC)c(OC)c1)C1CCc2cc3c(cc2C1)OCO3.Cl` (stereo not given), the Activity in the experiment with Canis familiaris [1] is given as 13.4; in the experiment on Canis familiaris [2], below 5. Turning to `CCN(CCCCOC(=O)c1ccc(OC)c(OC)c1)C1CCc2ccc(OC)cc2C1.Cl` (stereo not given), in the experiment on Canis familiaris [2], the Activity was found to be 18.1. As for `CCN(CCCOC(=O)c1ccc(OC)c(OC)c1)C1CCc2cc(OC)ccc2C1.Cl` (stereo not given), the Activity is -1 in the experiment with Canis familiaris [1] and below 5 with Canis familiaris [2]. With `CCN(CCCCOC(=O)c1ccc(OC)c(OC)c1)C(C)Cc1ccc(OC)cc1` (stereo not given) [MEBEVERINE], the Activity in the experiment with Canis familiaris [2] stood at 2.6.
